In article PMC6941357, “An in vitro toolbox to accelerate anti-malarial drug discovery and development” (Malaria Journal, 2020):
Like-named read-outs stand apart in the source and are kept apart here.

Columns and labels:
[1] = Blood to plasma partitioning; format: in vitro ADME, human; conditions: 37 °C; for blood plasma ratio at 1000 ng/mL: human, whole blood, pH 7.4, human whole blood, read-out: B/P (whole blood to plasma partitioning ratio)
Description: Human whole blood was collected and supplied by the Volunteer Blood Donor Registry (Clinical Translation Centre, Walter & Eliza Hall Institute of Medical Research, Parkville, Australia) and used on the day of collection. The haematocrit (Hct) was determined by centrifugation (13,000×g for 3 min using Clemets® Microhaematocrit centrifuge and Safecap® Plain Self-sealing Mylar wrapped capillary tubes) to ensure it was between 0.40 and 0.48. An aliquot was centrifuged (Heraeus, Multifuge 3 S-R; 4500×g) for 10 min to obtain plasma required for matrix matching purposes as described below.
Two aliquots of the spiked whole blood were transferred to fresh microcentrifuge tubes and maintained at 37 °C/5% CO2 in a humidified incubator. The pH was confirmed to be 7.4 ± 0.1 at the start and end of the incubation. At each time point (30 min and 4 h), one whole blood tube was removed from the incubator and mixed by gentle inversion, after which four replicate blood samples were taken and matrix matched with an equal volume of blank plasma. The remainder of the blood sample was centrifuged (Eppendorf, Mini Spin plus; 6700×g) for 2 min for the collection of 4 replicate plasma samples which were similarly matrix matched with an equal volume of blank whole blood. The 1:1 mixtures of blood/plasma were mixed, snap frozen in dry ice and stored at − 80 °C until analysis by LC–MS (Additional file 1: Table S2) against calibration standards prepared in the same mixed matrix. Any further distribution of compound into RBCs at this stage was irrelevant as the cells were lysed during the sample preparation and the total concentration in the mixed matrix was measured for both the calibration standards and samples.
The apparent whole blood-to-plasma partitioning ratio (B/P) was calculated as the ratio of the average concentration in the blood sample to that in the plasma fraction of the same whole blood sample. A standard deviation (SD) for each B/P value was calculated using the propagation of errors approach as described previously.

[2] = test system: Caco-2 cell monolayers; conditions: cited from earlier work; for Literature ER: Caco-2, ref [33], [35] of Additional file 1; for Literature Papp: Caco-2 A-B, ref [33]–[35] of Additional file 1; for A–B Papp / B–A Papp: matrix: human plasma, corrected for fu
[3] = Plasma protein binding via rapid equilibrium dialysis (RED), 10% plasma; format: in vitro ADME, human; conditions: human, 10% pooled plasma (diluted 1:10), pH 7.4, RED, 10% plasma corrected for dilution; for fraction unbound at 6 h: 6 h dialysis; for fraction unbound at 24 h: presaturation of device and 24 h dialysis
Description: (§1) Pooled human plasma (n = 3–4 donors) was obtained by centrifugation of blood (collected by the Australian Red Cross Blood Service, Melbourne, Australia or the Volunteer Blood Donor Registry, Clinical Translation Centre, Walter & Eliza Hall Institute of Medical Research, Parkville, Australia), or sourcing pooled plasma directly from commercial sources (Innovative Research Inc, MI) and stored frozen at − 80 °C.
(§2) Plasma was diluted 1:10 with pH 7.4 phosphate buffer (prepared by mixing 0.1 M sodium dihydrogen phosphate and 0.1 M disodium hydrogen phosphate (both containing 0.04 M NaCl) to pH 7.4) and spiked with compound to achieve a total measured concentration of ~ 1000–3000 ng/mL. Diluted plasma was vortex mixed briefly and aliquots (n = 3–4) were transferred to RED (Thermo Fisher Scientific, Waltham, MA) units that were placed at 37 °C under ambient atmosphere on a plate shaker. […] At the end of the dialysis period, samples were removed from both the donor and dialysate chambers of the RED units. […] Fraction unbound values were calculated for each individual RED unit and the mean and SD calculated for n = 3–4 replicates.
(§3) Briefly, the RED device was exposed for two 30 min periods and one overnight period to fresh solutions of compound prepared in pH 7.4 buffer at approximately 10% of the total dialysis concentration. Following the preincubations, solutions were removed from the RED device and discarded. […] Samples were removed and analysed as described above.
(§4) For binding assessments using 10% plasma, the unbound fraction (fu) in neat plasma was calculated using the average values for Ctotal and Cunbound and Eq.

[4] = Ionization constants by potentiometric titration; format: physicochemical; conditions: mean ± SD, n = 3 titrations; for pKa: aqueous solution (DMSO stock diluted 1:10 with water), read-out: Measured pKa
Description: The autotitrator was controlled by Tiamo software (Version 1.3). pH measurements were conducted using a Metrohm LL Micro glass electrode which was calibrated on the day of use with calibration standards at pH 2, 4, 7 and 10. All reagents were standardized (directly or indirectly) against potassium hydrogen phthalate (Sigma-Aldrich, A.C.S. Acidimetric Standard). Titrant solutions were protected from carbon dioxide absorption by flushing with nitrogen before sealing or by the incorporation of a drying tube filled with self-indicating soda lime into the titration reaction vessel set-up.
Aliquots were introduced directly into the titration vessel and diluted 1:10 with water (typical final compound concentration of 0.5 mM).

[5] = Binding in DMEM with 10% FCS via ultracentrifugation; format: in vitro ADME, calf; conditions: bovine, pH 7.4
Description: Dulbecco’s Modified Eagle’s Medium (DMEM) containing GlutaMAX-I was purchased from Invitrogen (Thermo Fisher Scientific) and stored at 4 °C. Medium was prepared by adding heat inactivated foetal calf serum (FCS, final 10% v/v), penicillin (final 100 U/mL), streptomycin (final 100 µg/mL) D-glucose (final 4.0 mg/mL) and sodium pyruvate (final 0.1 mg/mL).
An ultracentrifugation method adapted from a previous publication was initially used to assess plasma protein binding and binding in the other media. […] Additional ultracentrifuge tubes containing spiked matrix were maintained at 37 °C, 5% or 10% CO2 or normal atmosphere conditions, with aliquots being taken within 0.5 h of the start and at the end of ultracentrifugation to serve as controls for the assessment of stability and to obtain a measure of the total concentration (Ctotal). Following ultracentrifugation, the pH was checked and an aliquot of protein-free supernate was taken from each ultracentrifuge tube for determination of the unbound concentration (Cunbound).
Total matrix and protein free samples were analysed using a matrix matching approach whereby each sample was mixed in a 1:1 ratio with the opposite blank medium (i.e. blank total matrix or blank protein free buffer). For example, plasma samples were mixed with blank pH 7.4 buffer whereas plasma supernatant samples were mixed with blank plasma. Each of the sample sets were then assayed against a common calibration curve prepared in a 1:1 mixture of total matrix and protein free pH 7.4 buffer. […] The standard deviation for fu was calculated using the propagation of errors approach as described previously. The potential for compound degradation was assessed by comparing the average value for Ctotal at the start and end of the experiment.

[6] = test system: human plasma; test: Plasma protein binding via rapid equilibrium dialysis (RED), 10% plasma; format: in vitro ADME; conditions: RED, 10% plasma corrected for dilution, 6 h dialysis
Description: as §1, §2, §3, §4

Row | SMILES | fraction unbound at 6 h [3] | pKa ([4]; basic pKa (B)) | fraction unbound at 24 h [3] | fraction unbound at […], 1000 ng/mL ([5]; DMEM with 10% FCS) | other results
1 | COc1ccc2nc3cc(Cl)ccc3c(Nc3cc(CN4CCCC4)c(O)c(CN4CCCC4)c3)c2n1 [Pyronaridine] | 0.09 ± 0.012 | – | – | – | blood plasma ratio at 1000 ng/mL [1]: 9 ± 0.83; Literature ER [2]: 1.8; Literature Papp [2]: 10.3 ± 0.3 10-6 cm/sec
2 | CC(C)(N)CNC(=O)C[C@H]1CC[C@]2(CC1)OO[C@]1(O2)C2CC3CC(C2)CC1C3 [OZ277, Arterolane] | 0.056 | 8.9 ± 0.16 | – | – | –
3 | CO[C@H]1O[C@@H]2O[C@@]3(C)CC[C@H]4[C@H](C)CC[C@@H]([C@H]1C)[C@@]24OO3 [Artemether] | – | – | 0.066 | – | –
4 | CCc1nc(N)nc(N)c1-c1ccc(Cl)cc1 [Pyrimethamine] | 0.095 ± 0.001 | 6.9 ± 0.1 | – | 0.48 ± 0.034 | –
5 | C[C@H]1[C@@H](O)O[C@@H]2O[C@@]3(C)CC[C@H]4[C@H](C)CC[C@@H]1[C@@]24OO3 [Dihydroartemisinin] | – | – | – | – | Literature Papp [2]: 38.6 ± 5.0 10-6 cm/sec
6 | N#Cc1cc(NC(=O)[C@H]2c3ccccc3C(=O)N(CC(F)(F)F)[C@@H]2c2cccnc2)ccc1F [SJ733] | 0.1 | 4.1 ± 0.03 | 0.085 ± 0.012 | – | –
7 | OC(c1cc(C(F)(F)F)nc2c(C(F)(F)F)cccc12)C1CCCCN1 (centres unmarked) [Mefloquine] | – | 8.5 ± 0.04 | – | – | Literature ER [2]: 0.7; Literature Papp [2]: 9.9 ± 0.7 10-6 cm/sec; A–B Papp [2]: 180 ± 20 10^−6 cm/s; B–A Papp [2]: 150 ± 10 10^−6 cm/s
8 | CCNCc1cc(Nc2ccnc3cc(Cl)ccc23)ccc1O [Desethylamodiaquine] | – | 8.5 ± 0.05 | – | – | blood plasma ratio at 1000 ng/mL [1]: 3.26 ± 0.35
9 | C[C@H]1Cc2c([nH]c3cc(Cl)c(F)cc23)[C@@]2(N1)C(=O)Nc1ccc(Cl)cc12 [KAE609] | 0.002 | 5.1 ± 0.02 | 0.0016 ± 0.0001 | – | blood plasma ratio at 1000 ng/mL [1]: 0.66 ± 0.04
10 | COc1ncnc(NS(=O)(=O)c2ccc(N)cc2)c1OC [Sulfadoxine] | 0.025 | – | – | 0.86 ± 0.044 | pKa ([4]; acidic pKa (A)): 6.2 ± 0.01
11 | CC(C)NC(=N)NC(=N)Nc1ccc(Cl)c(Cl)c1 [Chlorproguanil] | – | – | – | – | B/P (whole blood to plasma partitioning ratio) ([1]; human whole blood): 3.3 ± 0.38; blood plasma ratio at 1000 ng/mL [1]: > 3
12 | C[C@H]1[C@H](OC(=O)CCC(=O)O)O[C@@H]2O[C@@]3(C)CC[C@H]4[C@H](C)CC[C@@H]1[C@@]24OO3 [Artesunate] | – | – | – | 0.72 ± 0.026 | Literature ER [2]: 1.2; pKa ([4]; acidic pKa (A)): 4.7 ± 0.04
13 | CC[C@H]1OC(=O)[C@H](C)[C@@H](O[C@H]2C[C@@](C)(OC)[C@@H](O)[C@H](C)O2)[C@H](C)[C@@H](O[C@@H]2O[C@H](C)C[C@H](N(C)C)[C@H]2O)[C@](C)(O)C[C@@H](C)CN(C)[C@H](C)[C@@H](O)[C@]1(C)O [Azithromycin] | 0.34 | – | – | – | Fraction unbound, human plasma [6]: 0.35
14 | CS(=O)(=O)c1ccc(-c2cnc(N)c(-c3ccc(C(F)(F)F)nc3)c2)cc1 [MMV048] | 0.11 ± 0.007 | 4 ± 0.07 | – | 0.653 ± 0.06 | –
15 | COc1cc(NC(C)CCCN)c2ncccc2c1 (centres unmarked) [Primaquine] | – | – | – | – | fraction unbound at […], 1000 ng/mL [5]: 0.78 ± 0.025
16 | O=C1C(O)=C([C@H]2CC[C@H](c3ccc(Cl)cc3)CC2)C(=O)c2ccccc21 [Atovaquone] | – | – | < 0.0001 | – | A–B Papp [2]: > 300 10^−6 cm/s; B–A Papp [2]: > 300 10^−6 cm/s
17 | Clc1ccc2c(N3CCN(CCCN4CCN(c5ccnc6cc(Cl)ccc56)CC4)CC3)ccnc2c1 [Piperaquine] | – | – | 0.0003 ± 0.0001 | 0.092 ± 0.003 | blood plasma ratio at 1000 ng/mL [1]: 0.57 ± 0.05; A–B Papp [2]: > 300 10^−6 cm/s; B–A Papp [2]: > 300 10^−6 cm/s
18 | CCCCN(CCCC)CC(O)c1cc(Cl)cc2c1-c1ccc(Cl)cc1/C2=C/c1ccc(Cl)cc1 (centres unmarked) [Lumefantrine] | < 0.0001 | – | < 0.0001 | – | blood plasma ratio at 1000 ng/mL [1]: 0.48 ± 0.09
19 | CC1(C)c2nc(-c3ccc(F)cc3)c(Nc3ccc(F)cc3)n2CCN1C(=O)CN [KAF156] | – | 8.4 ± 0.06 | – | 0.477 ± 0.032 | –
20 | C[C@H]1[C@H](N2CCS(=O)(=O)CC2)O[C@@H]2O[C@@]3(C)CC[C@H]4[C@H](C)CC[C@@H]1[C@@]24OO3 [Artemisone] | – | – | – | – | Literature ER [2]: 0.8; Literature Papp [2]: 59.6 ± 4.2 10-6 cm/sec; Measured pKa ([4]; basic pKa (B)): no ionizations could be detected
21 | CC1(C)N=C(N)N=C(N)N1c1ccc(Cl)cc1 [Cycloguanil] | – | 11.4 ± 0.3 | – | 0.94 ± 0.064 | –
22 | CCCCN(CCCC)CCC(O)c1cc2c(Cl)cc(Cl)cc2c2cc(C(F)(F)F)ccc12 (centres unmarked) [Halofantrine] | – | – | < 0.0001 | – | A–B Papp [2]: > 300 10^−6 cm/s; B–A Papp [2]: > 300 10^−6 cm/s
23 | C[C@H]1c2cccc(O)c2C(=O)C2=C(O)[C@]3(O)C(=O)C(C(N)=O)=C(O)[C@@H](N(C)C)[C@@H]3[C@@H](O)[C@@H]21 [Doxycyclin] | 0.23 ± 0.09 | – | – | 0.44 ± 0.07 | –
24 | Cc1nc(Nc2ncc(N3CCN(C)[C@H](C)C3)c(Nc3cc(C)n(C)n3)n2)cc(C2CC2)c1F [MMV253] | – | 8 ± 0.03 | 0.017 ± 0.0002 | – | blood plasma ratio at 1000 ng/mL [1]: 1 ± 0.05
